In patent publication US10364247B2, “Preparation and use of novel protein kinase inhibitors” (Ruijin Hospital Affiliated to Shanghai Jiao Tong University …, priority 2015, dated 2019):

Experiments:
Experiment in all cases: KINOMEscan competition binding
[1] = molecular target: T1, ABL1(H396P)-phosphorylated (Homo sapiens, UniProt P00519, H396P); conditions: read-out: Percent Control
T1 construct: purchased KINOMEscan (panel service)
Description: (§1) KINOMEscan™ is based on a competition binding assay that quantitatively measures the ability of a compound to compete with an immobilized, active-site directed ligand (Fabian et al. (2005) Nat. Biotechnol. 23, 329; Karaman et al. (2008) Nat. Biotechnol. 26, 127). The compound was screened at 10 μM, and results for primary screen binding interactions are reported as ‘% Ctrl’, where lower numbers indicate stronger hits. The results for kinases targets with a % Ctrl less than 30 can be seen in Table 2.

BMX = BMX (Homo sapiens, UniProt P51813); conditions: read-out: Percent Control
Description: as §1

CDC2L1 = molecular target: T2, CDC2L1 (Homo sapiens, UniProt P21127); conditions: CDC2L1 (Entrez CDK11B), read-out: Percent Control
T2 construct: purchased KINOMEscan (screening service)
Description: as §1

CDC2L2 = molecular target: T3, CDC2L2 (Homo sapiens, UniProt Q9UQ88); conditions: read-out: Percent Control
T3 construct: purchased KINOMEscan (screening platform)
Description: as §1

CSK = CSK (Homo sapiens, UniProt P41240); conditions: read-out: Percent Control
Description: as §1

DDR1 = DDR1 (Homo sapiens, UniProt Q08345); conditions: read-out: Percent Control
Description: as §1

DRAK1 = molecular target: T4, DRAK1 (Homo sapiens, UniProt Q9UEE5); conditions: DRAK1 (Entrez STK17A), read-out: Percent Control
T4 construct: purchased KINOMEscan (screening platform)
Description: as §1

EGFR(L747-T751del, Sins) = conditions: 10 μM
Description: as §1

EGFR(S752-I759del) = EGFR(S752-I759del) (Homo sapiens, UniProt P00533, DEL752-759); conditions: read-out: Percent Control
Description: as §1

EPHA1 = EPHA1 (Homo sapiens, UniProt P21709); conditions: read-out: Percent Control
Description: as §1

EPHA2 = EPHA2 (Homo sapiens, UniProt P29317); conditions: read-out: Percent Control
Description: as §1

EPHA3 = molecular target: T5, EPHA3 (Homo sapiens, UniProt P29320); conditions: read-out: Percent Control
T5 construct: purchased KINOMEscan (screening service)
Description: as §1

EPHA4 = EPHA4 (Homo sapiens, UniProt P54764); conditions: read-out: Percent Control
Description: as §1

EPHA8 = molecular target: T6, EPHA8 (Homo sapiens, UniProt P29322); conditions: read-out: Percent Control
T6 construct: purchased KINOMEscan (panel service)
Description: as §1

EPHB4 = EPHB4 (Homo sapiens, UniProt P54760); conditions: read-out: Percent Control
Description: as §1

FLT3(D835H) = FLT3(D835H) (Homo sapiens, UniProt P36888, D835H); conditions: read-out: Percent Control
Description: as §1

FRK = FRK (Homo sapiens, UniProt P42685); conditions: read-out: Percent Control
Description: as §1

FYN = molecular target: T7, FYN (Homo sapiens, UniProt P06241); conditions: read-out: Percent Control
T7 construct: purchased KINOMEscan (panel service)
Description: as §1

GAK = molecular target: T8, GAK (Homo sapiens, UniProt O14976); conditions: read-out: Percent Control
T8 construct: purchased KINOMEscan (screening service)
Description: as §1

KIT = molecular target: T9, KIT (Homo sapiens, UniProt P10721); conditions: read-out: Percent Control
T9 construct: purchased KINOMEscan (panel service)
Description: as §1

KIT(V559D, T670I) = KIT(V559D, T670I) (Homo sapiens, UniProt P10721, T670I/V559D); conditions: read-out: Percent Control
Description: as §1

LTK = molecular target: T10, LTK (Homo sapiens, UniProt P29376); conditions: read-out: Percent Control
T10 construct: purchased KINOMEscan (screening platform)
Description: as §1

MAP3K1 = molecular target: T11, MAP3K1 (Homo sapiens, UniProt Q13233); conditions: read-out: Percent Control
T11 construct: purchased KINOMEscan (screening platform)
Description: as §1

MAP3K3 = MAP3K3 (Homo sapiens, UniProt Q99759); conditions: read-out: Percent Control
Description: as §1

MEK4 = MEK4 (Homo sapiens, UniProt P45985); conditions: MEK4 (Entrez MAP2K4), read-out: Percent Control
Description: as §1

MLK3 = MLK3 (Homo sapiens, UniProt Q16584); conditions: MLK3 (Entrez MAP3K11), read-out: Percent Control
Description: as §1

RET = RET (Homo sapiens, UniProt P07949); conditions: read-out: Percent Control
Description: as §1

RIPK2 = RIPK2 (Homo sapiens, UniProt O43353); conditions: read-out: Percent Control
Description: as §1

[2] = molecular target: T12, RSK4(Kin.Dom.2-C-terminal) (Homo sapiens, UniProt Q9UK32); conditions: RSK4(Kin.Dom.2-C-terminal) (Entrez RPS6KA6), read-out: Percent Control
T12 construct: RSK4(Kin.Dom.2-C-terminal)
Description: as §1

SIK = SIK (Homo sapiens, UniProt P57059); conditions: SIK (Entrez SIK1), read-out: Percent Control
Description: as §1

TIE1 = TIE1 (Homo sapiens, UniProt P35590); conditions: read-out: Percent Control
Description: as §1

TIE2 = TIE2 (Homo sapiens, UniProt Q02763); conditions: TIE2 (Entrez TEK)
Description: as §1

TNNI3K = molecular target: T13, TNNI3K (Homo sapiens, UniProt Q59H18); conditions: read-out: Percent Control
T13 construct: purchased KINOMEscan (panel service)
Description: as §1

TRKB = molecular target: T14, TRKB (Homo sapiens, UniProt Q16620); conditions: TRKB (Entrez NTRK2), read-out: Percent Control
T14 construct: purchased KINOMEscan (screening service)
Description: as §1

TXK = molecular target: T15, TXK (Homo sapiens, UniProt P42681); conditions: read-out: Percent Control
T15 construct: purchased KINOMEscan (panel service)
Description: as §1

ZAK = ZAK (Homo sapiens, UniProt Q9NYL2); conditions: read-out: Percent Control
Description: as §1

p38-beta = p38-beta (Homo sapiens, UniProt Q15759); conditions: p38-beta (Entrez MAPK11), read-out: Percent Control
Description: as §1

T7 sequence (P06241 whole entry): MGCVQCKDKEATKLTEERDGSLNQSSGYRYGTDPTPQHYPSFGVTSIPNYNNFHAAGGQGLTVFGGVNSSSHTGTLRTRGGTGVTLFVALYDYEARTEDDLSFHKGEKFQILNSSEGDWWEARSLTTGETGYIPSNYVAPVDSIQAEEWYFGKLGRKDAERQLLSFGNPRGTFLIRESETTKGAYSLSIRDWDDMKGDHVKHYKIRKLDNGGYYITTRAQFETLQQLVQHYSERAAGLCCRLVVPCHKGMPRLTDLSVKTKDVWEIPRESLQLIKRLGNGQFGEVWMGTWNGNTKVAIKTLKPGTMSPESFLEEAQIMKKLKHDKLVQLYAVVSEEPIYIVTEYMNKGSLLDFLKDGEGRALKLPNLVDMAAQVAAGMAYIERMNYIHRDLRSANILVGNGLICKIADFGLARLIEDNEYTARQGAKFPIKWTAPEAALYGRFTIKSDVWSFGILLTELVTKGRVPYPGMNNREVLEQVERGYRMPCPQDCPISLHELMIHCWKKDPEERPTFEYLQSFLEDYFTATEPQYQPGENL
T8 sequence (O14976 whole entry): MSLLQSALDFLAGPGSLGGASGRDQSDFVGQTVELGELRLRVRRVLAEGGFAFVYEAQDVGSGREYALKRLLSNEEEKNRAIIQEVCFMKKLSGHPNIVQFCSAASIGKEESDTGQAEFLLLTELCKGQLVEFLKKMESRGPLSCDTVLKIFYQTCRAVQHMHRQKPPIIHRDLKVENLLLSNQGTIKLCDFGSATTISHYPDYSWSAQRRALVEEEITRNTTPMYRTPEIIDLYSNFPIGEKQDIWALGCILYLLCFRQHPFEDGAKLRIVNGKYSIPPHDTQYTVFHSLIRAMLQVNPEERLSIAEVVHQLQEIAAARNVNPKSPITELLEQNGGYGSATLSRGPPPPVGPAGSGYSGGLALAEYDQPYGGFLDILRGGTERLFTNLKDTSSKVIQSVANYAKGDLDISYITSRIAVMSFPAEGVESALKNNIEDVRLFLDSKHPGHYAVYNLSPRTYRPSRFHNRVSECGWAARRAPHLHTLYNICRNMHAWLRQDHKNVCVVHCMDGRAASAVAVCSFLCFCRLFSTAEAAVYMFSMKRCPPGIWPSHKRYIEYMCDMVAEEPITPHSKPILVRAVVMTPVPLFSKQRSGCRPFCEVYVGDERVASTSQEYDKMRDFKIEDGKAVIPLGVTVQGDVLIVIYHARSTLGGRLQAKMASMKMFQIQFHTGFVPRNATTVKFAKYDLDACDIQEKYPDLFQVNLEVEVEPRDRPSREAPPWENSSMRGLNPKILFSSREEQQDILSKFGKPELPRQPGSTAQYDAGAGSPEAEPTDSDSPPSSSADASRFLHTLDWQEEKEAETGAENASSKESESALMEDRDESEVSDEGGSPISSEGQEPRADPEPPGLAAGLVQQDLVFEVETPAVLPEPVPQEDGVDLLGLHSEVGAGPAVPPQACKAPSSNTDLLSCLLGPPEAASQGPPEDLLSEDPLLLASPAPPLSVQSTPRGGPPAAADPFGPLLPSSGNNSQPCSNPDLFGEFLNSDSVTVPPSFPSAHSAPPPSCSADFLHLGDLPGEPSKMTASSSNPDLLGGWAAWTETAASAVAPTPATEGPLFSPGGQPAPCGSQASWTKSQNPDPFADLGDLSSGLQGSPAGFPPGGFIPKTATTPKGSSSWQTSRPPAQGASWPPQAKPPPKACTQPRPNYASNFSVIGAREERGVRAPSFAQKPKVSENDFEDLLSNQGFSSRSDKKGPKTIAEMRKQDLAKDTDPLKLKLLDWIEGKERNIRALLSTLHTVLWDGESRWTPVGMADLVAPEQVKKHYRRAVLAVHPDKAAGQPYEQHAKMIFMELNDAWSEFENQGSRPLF
MAP3K3, sequence (Q99759 whole entry): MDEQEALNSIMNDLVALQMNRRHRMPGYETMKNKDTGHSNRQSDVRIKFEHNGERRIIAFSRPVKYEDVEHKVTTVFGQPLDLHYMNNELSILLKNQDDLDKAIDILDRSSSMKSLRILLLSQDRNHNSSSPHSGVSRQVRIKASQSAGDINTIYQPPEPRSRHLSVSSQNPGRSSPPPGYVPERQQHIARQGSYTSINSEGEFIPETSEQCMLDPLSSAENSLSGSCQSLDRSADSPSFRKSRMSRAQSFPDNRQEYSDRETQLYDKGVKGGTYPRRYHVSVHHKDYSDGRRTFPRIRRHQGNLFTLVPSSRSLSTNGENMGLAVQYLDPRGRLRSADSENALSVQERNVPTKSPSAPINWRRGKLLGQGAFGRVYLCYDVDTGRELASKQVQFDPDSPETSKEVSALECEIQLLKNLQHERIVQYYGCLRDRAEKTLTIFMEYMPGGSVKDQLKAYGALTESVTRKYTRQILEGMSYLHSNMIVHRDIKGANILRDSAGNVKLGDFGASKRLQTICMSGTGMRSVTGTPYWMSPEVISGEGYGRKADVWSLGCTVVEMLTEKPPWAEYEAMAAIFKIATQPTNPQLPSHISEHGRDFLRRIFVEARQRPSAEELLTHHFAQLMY
DDR1, sequence (Q08345 19-913): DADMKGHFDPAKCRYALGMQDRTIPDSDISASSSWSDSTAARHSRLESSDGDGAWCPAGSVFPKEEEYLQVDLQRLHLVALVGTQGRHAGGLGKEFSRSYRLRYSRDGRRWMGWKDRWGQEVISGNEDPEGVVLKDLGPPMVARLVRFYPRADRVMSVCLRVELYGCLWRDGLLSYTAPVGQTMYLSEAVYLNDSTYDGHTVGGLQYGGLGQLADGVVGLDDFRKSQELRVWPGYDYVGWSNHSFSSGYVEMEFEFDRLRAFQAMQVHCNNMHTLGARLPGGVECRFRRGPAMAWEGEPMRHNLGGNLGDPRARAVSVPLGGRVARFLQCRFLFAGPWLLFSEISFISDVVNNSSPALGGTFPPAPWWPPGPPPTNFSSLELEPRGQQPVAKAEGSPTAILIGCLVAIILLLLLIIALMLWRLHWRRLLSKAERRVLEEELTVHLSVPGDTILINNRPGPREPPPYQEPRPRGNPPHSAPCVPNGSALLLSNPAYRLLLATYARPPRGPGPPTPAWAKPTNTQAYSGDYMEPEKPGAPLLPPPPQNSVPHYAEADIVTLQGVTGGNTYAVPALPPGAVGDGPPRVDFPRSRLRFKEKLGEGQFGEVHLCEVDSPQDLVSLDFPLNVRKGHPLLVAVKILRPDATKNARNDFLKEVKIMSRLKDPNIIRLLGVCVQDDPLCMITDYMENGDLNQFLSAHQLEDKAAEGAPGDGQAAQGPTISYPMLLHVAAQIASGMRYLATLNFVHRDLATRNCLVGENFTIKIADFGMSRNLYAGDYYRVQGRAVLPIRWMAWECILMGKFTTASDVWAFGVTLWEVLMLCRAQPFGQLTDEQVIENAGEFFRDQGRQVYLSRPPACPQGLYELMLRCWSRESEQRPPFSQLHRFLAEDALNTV
T10 sequence (P29376 17-864): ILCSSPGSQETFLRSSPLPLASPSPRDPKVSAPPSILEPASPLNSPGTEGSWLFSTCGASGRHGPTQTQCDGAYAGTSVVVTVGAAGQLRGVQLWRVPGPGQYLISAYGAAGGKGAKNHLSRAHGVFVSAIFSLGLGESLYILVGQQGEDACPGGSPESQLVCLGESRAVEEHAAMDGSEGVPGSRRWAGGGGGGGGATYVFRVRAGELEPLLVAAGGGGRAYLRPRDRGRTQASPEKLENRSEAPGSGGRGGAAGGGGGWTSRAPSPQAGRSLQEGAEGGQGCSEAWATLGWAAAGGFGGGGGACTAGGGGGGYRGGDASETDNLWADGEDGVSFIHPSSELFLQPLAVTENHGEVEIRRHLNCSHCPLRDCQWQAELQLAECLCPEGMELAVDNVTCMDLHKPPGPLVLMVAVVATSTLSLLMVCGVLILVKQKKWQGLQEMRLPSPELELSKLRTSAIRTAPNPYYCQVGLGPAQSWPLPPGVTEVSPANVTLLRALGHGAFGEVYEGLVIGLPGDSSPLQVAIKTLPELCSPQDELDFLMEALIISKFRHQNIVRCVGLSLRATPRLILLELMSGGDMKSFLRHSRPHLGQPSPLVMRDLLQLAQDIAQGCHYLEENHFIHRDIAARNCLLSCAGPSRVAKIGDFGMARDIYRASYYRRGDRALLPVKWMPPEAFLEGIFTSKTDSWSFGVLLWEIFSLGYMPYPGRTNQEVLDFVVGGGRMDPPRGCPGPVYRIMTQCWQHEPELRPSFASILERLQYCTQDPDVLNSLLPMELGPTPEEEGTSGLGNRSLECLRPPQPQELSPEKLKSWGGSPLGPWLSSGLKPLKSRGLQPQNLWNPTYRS
T4 sequence (Q9UEE5 whole entry): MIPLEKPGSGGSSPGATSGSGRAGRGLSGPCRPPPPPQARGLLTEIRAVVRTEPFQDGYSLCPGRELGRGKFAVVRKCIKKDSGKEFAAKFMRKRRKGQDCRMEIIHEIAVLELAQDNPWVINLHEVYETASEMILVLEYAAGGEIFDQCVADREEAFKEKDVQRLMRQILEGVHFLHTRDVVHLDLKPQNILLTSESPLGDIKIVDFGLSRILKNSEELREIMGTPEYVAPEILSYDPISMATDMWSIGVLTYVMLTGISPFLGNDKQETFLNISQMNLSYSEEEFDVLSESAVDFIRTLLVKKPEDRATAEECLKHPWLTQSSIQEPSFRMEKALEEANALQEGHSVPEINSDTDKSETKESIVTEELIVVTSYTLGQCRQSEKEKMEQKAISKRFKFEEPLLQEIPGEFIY
p38-beta, sequence (Q15759 whole entry): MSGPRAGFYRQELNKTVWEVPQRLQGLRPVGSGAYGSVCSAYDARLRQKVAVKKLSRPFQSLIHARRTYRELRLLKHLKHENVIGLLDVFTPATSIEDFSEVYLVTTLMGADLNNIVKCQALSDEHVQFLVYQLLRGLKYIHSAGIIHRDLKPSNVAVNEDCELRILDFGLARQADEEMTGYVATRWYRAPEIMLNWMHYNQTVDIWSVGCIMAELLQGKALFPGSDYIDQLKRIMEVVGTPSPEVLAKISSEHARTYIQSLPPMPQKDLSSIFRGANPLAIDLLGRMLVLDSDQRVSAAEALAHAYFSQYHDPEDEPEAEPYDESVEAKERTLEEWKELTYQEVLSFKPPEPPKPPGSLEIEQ

Cc1ccc(Nc2ncc3c(n2)N(C)CN(c2cc(NC(=O)c4cccc(C(F)(F)F)c4)ccc2C)C3)cn1 [IA-9, N-(4-methyl-3-(1-methyl-7-((6-methylpyridin-3-yl)amino)-1,4-dihydropyrimido[4,5-d]pyrimidin-3(2H)-yl)phenyl)-3-(trifluoromethyl)benzamide]
remaining binding at 10 µM [1]: 0.15%
remaining binding at 10 µM (BMX): 0.75%
remaining binding at 10 µM (CDC2L1): 15%
remaining binding at 10 µM (CDC2L2): 28%
remaining binding at 10 µM (CSK): 0.9%
remaining binding at 10 µM (DDR1): 1.1%
remaining binding at 10 µM (DRAK1): 22%
Percent Control (EGFR(L747-T751del, Sins)): 0.4 % Ctrl
remaining binding at 10 µM (EGFR(S752-I759del)): 0%
remaining binding at 10 µM (EPHA1): 0.35%
remaining binding at 10 µM (EPHA2): 0.2%
remaining binding at 10 µM (EPHA3): 11%
remaining binding at 10 µM (EPHA4): 0%
remaining binding at 10 µM (EPHA8): 0.15%
remaining binding at 10 µM (EPHB4): 0%
remaining binding at 10 µM (FLT3(D835H)): 3.2%
remaining binding at 10 µM (FRK): 0%
remaining binding at 10 µM (FYN): 0.05%
remaining binding at 10 µM (GAK): 7.4%
remaining binding at 10 µM (KIT): 0.05%
remaining binding at 10 µM (KIT(V559D, T670I)): 0.3%
remaining binding at 10 µM (LTK): 22%
remaining binding at 10 µM (MAP3K1): 29%
remaining binding at 10 µM (MAP3K3): 1.3%
remaining binding at 10 µM (MEK4): 2%
remaining binding at 10 µM (MLK3): 5.8%
remaining binding at 10 µM (RET): 0%
remaining binding at 10 µM (RIPK2): 6%
remaining binding at 10 µM [2]: 2.6%
remaining binding at 10 µM (SIK): 0.35%
remaining binding at 10 µM (TIE1): 5.6%
percent of control binding at 10 µM (TIE2): 0.45%
remaining binding at 10 µM (TNNI3K): 0.1%
remaining binding at 10 µM (TRKB): 10%
remaining binding at 10 µM (TXK): 0%
remaining binding at 10 µM (ZAK): 0.55%
remaining binding at 10 µM (p38-beta): 0%
